Reference: patent US20080269298A1, “Benzimidazol-1-YL-thiophene compounds for the treatment of cancer” (priority 2002, published 2008)

How the values were obtained:
[1] = test system: colon (HCT116) tumor cell line; experiment: Methylene Blue Growth Inhibition Assay, HCT116; type: cell-based; settings: Homo sapiens, HCT-116, 72 h; Cell Line HCT116, 3 days; read-out: MeB IC50
Experimental: (§1) Normal Human foreskin fibroblasts (HFF) and human colon (HCT116, RKO), lung (H460), prostate (PC3), and breast tumor (MCF7) cell lines were cultured in high glucose DMEM (Life Technologies) containing 10% fetal bovine serum (FBS) at 37° C. in a humidified 10% CO2, 90% air incubator. Cells were harvested using trypsin/EDTA, counted using a haemocytometer, and plated in 100 μl of the appropriate media, at the following densities, in a 96-well tissue culture plate (Falcon 3075): HFF 5,000 cells/well, HCT116 3,000 cells/well, RKO 2,500 cells/well, H460 2,000 cells/well, PC3 8,000 cells/well, MCF7 4,000 cells/well. The next day, compounds were diluted in DMEM containing 100 μg/ml gentamicin, at twice the final required concentration, from 10 mM stock solutions in DMSO. 100μ/well of these dilutions were added to the 100 μl of media currently on the cell plates. Medium containing 0.6% DMSO was added to control wells. Compounds diluted in DMEM were added to all cell lines. The final concentration of DMSO in all wells was 0.3%. Cells were incubated at 37° C., 10% CO2 for 3 days. Medium was removed by aspiration. Cell biomass was estimated by staining cells with […] per well methylene blue (Sigma M9140, 0.5% in 50:50 ethanol:water), and incubation at room temperature for at least 30 minutes. Stain was removed, and the plates rinsed under a gentle stream of water, and air-dried. To release stain from the cells 100 μl of solubilization solution was added (1% N-lauroyl sarcosine, Sodium salt, Sigma L5125, in PBS), and plates were shaken gently for about 30 minutes. Optical density at 620 nm was measured on a microplate reader. Percent inhibition of cell growth was calculated relative to vehicle treated control wells. Concentration of compound that inhibits 50% of cell growth (IC50) was interpolated using nonlinear regression (Levenberg-Marquardt) and the equation, y=Vmax*(1-(x/(K+x)))+Y2, where “K” was equal to the IC50. In Table 1, +=10−>30 uM; ++=1−10 uM: +++=<1 uM.

[2] = test system: colon (RKO) tumor cell line; experiment: Methylene Blue Growth Inhibition Assay, RKO; type: cell-based; settings: Homo sapiens, 72 h, 3 days, read-out: MeB IC50
Experimental: as §1

[3] = test system: prostate (PC3) tumor cell line; experiment: Methylene Blue Growth Inhibition Assay, PC3; type: cell-based; settings: Homo sapiens, 72 h; Cell Line PC3, 3 days; read-out: MeB IC50
Experimental: as §1

PLK1 kinase domain = target: T1, PLK1 kinase domain (Homo sapiens, UniProt P53350); experiment: Assay for Inhibition of PLK1 (SPA enzyme activity); type: biochemical; settings: 2 μM ATP, read-out: Ave pIC50 PLK Enzyme Inhibition (converted)
T1 construct: made in house; host or cells: baculovirus-infected T. ni insect cells
Experimental: All procedures were performed at 4° C. Cells were lysed in so mM HEPES, 200 mM NaCl, so mM imidazole, 5% glycerol; pH 7.5. The homogenate was centrifuged at 14K rpm in a SLA-1500 rotor for 1 hr and the supernatant filtered through a 1.2 micron filter. The supernatant was loaded onto a Nickel chelating Sepharose (Amersham Pharmacia) column and washed with lysis buffer. Protein was eluted using 20%, 30% and 100% buffer B steps where buffer B is 50 mM HEPES, 200 mM NaCl, 300 mM imidazole, 5% glycerol; pH 7.5. Fractions containing PLK were determined by SDS-PAGE. Fractions containing PLK were diluted five-fold with so mM HEPES, 1 mM DTT, 5% glycerol; pH 7.5, then loaded on an SP Sepharose (Amersham Pharmacia) column. After washing the column with so mM HEPES, 1 mM DTT, 5% glycerol; pH 7.5, PLK was step eluted with so mM HEPES, 1 mM DTT, 500 mM NaCl; 5% glycerol; pH 7.5. PLK was concentrated using a 10 kDa molecular weight cutoff membrane and then loaded onto a Superdex 200 gel filtration (Amersham Pharmacia) column equilibrated in 25 mM HEPES, 1 mM DTT, 500 mM NaCl, 5% glycerol; pH 7.5. Fractions containing PLK were determined by SDS-PAGE. PLK was pooled, aliquoted and stored at −80° C. Samples were quality controlled using mass spectrometry, N-terminal sequencing and amino acid analysis.
B. Enzyme activity+/−inhibitors was determined as follows:
Compounds were added to the plate (1 μl in […]). […] Reaction Mix B is prepared as follows at 4° C.: • Reaction Mix B (Enzyme Mix) • 25 mM HEPES, pH 7.2 • 15 mM MgCl2 • 0.15 mg/ml BSA • 2 mM DTT • 2-10 nM PLK1 kinase domain
Reaction Mix A (20 μl) is added per well. Reaction Mix B (20 μl) is added per well. Incubate 1.5 hrs. at RT. The enzymatic reaction is stopped with 175 μl of SPA/EDTA bead mix (29 mM EDTA, 2.5 mg/ml Streptavidin-coated SPA in Standard Dulbecco's PBS (without Mg^2+ and Ca^2+), 60 μM ATP). Plates are sealed spun (after a 1 hr incubation at RT) at 1,000×g for 7 min or settled overnight, then plates counted in Packard TopCount for 30 seconds/well.

[4] = test system: lung (H460) tumor cell line; experiment: Methylene Blue Growth Inhibition Assay, H460; type: cell-based; settings: Homo sapiens, NCI-H460, 72 h; Cell Line H460, 3 days; read-out: MeB IC50
Experimental: as §1

[5] = test system: Normal Human foreskin fibroblasts (HFF); experiment: Methylene Blue Growth Inhibition Assay, HFF; type: cell-based; settings: 72 h, Cell Line HFF, 3 days, read-out: MeB IC50
Experimental: as §1

[6] = test system: breast tumor (MCF7) cell line; experiment: Methylene Blue Growth Inhibition Assay, MCF7; type: cell-based; settings: Homo sapiens, 72 h; Cell Line MCF7, 3 days; read-out: MeB IC50
Experimental: as §1

T1 sequence (P53350 21-346): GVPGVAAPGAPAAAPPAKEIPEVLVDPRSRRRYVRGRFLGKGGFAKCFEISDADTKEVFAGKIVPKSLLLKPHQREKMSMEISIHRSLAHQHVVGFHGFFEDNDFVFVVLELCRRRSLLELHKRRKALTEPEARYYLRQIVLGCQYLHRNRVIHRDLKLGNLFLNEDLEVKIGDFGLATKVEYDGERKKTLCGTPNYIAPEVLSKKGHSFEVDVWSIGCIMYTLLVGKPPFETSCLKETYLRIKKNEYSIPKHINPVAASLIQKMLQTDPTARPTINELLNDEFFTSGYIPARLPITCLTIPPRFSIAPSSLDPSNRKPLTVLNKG

Structure (SMILES)	IC50 [1] [µM]	IC50 [2] [µM]	IC50 [3] [µM]	IC50 (PLK1 kinase domain) [µM]	IC50 [4] [µM]	IC50 [5] [µM]	IC50 [6] [µM]
COc1cc2ncn(-c3cc(OCc4ccccc4[N+](=O)[O-])c(C(N)=O)s3)c2cc1OC [Example 92, 5-(5,6-Dimethoxy-1H-benzimidazol-1-yl)-3-[(2-nitrobenzyl)oxy]thiophene-2-carboxamide]	< 1	< 1	1 to 10	< 0.1	< 1	1 to 10	< 1
COc1cc2ncn(-c3cc(OCc4ccccc4-c4ccccc4)c(C(N)=O)s3)c2cc1OC [Example 93, 3-(1,1′-Biphenyl-2-ylmethoxy)-5-(5,6-dimethoxy-1H-benzimidazol-1-yl)thiophene-2-carboxamide]	> 10	> 10	> 10	0.1 to 10	> 10	> 10	> 10
COc1cc2ncn(-c3cc(OCc4cccc(I)c4)c(C(N)=O)s3)c2cc1OC [Example 94]	1 to 10	1 to 10	1 to 10	< 0.1	1 to 10	1 to 10	1 to 10
COc1cc2ncn(-c3cc(OCc4ccccc4C#N)c(C(N)=O)s3)c2cc1OC [Example 95, 3-[(2-Cyanobenzyl)oxy]-5-(5,6-dimethoxy-1H-benzimidazol-1-yl)thiophene-2-carboxamide]	1 to 10	1 to 10	> 10	< 0.1	1 to 10	> 10	1 to 10
COc1cc2ncn(-c3cc(OCc4cccc(N)c4)c(C(N)=O)s3)c2cc1OC [Example 96, 3-[(3-Aminobenzyl)oxy]-5-(5,6-dimethoxy-1H-benzimidazol-1-yl)thiophene-2-carboxamide]	1 to 10	1 to 10	> 10	< 0.1	1 to 10	> 10	1 to 10
COc1cc2ncn(-c3cc(OCc4ccccc4SC)c(C(N)=O)s3)c2cc1OC [Example 97]	1 to 10	1 to 10	1 to 10	< 0.1	1 to 10	1 to 10	1 to 10
COc1cc2ncn(-c3cc(OCc4ccccc4[S+](C)[O-])c(C(N)=O)s3)c2cc1OC (stereo not shown) [Example 98, 5-(5,6-Dimethoxy-1H-benzimidazol-1-yl)-3-{[2-(methylsulfinyl)benzyl]oxy}thiophene-2-carboxamide]	1 to 10	1 to 10	1 to 10	0.1 to 10	1 to 10	> 10	1 to 10
COc1cc2ncn(-c3cc(OCc4ccccc4S(C)(=O)=O)c(C(N)=O)s3)c2cc1OC [Example 99, 5-(5,6-Dimethoxy-1H-benzimidazol-1-yl)-3-{[2-(methylsulfonyl)benzyl]oxy}thiophene-2-carboxamide]	1 to 10	1 to 10	> 10	< 0.1	1 to 10	> 10	1 to 10
COc1cc2ncn(-c3cc(OCc4ccnc(N)c4)c(C(N)=O)s3)c2cc1OC [Example 100, 3-[(2-Aminopyridin-4-yl)methoxy]-5-(5,6-dimethoxy-1H-benzimidazol-1-yl)thiophene-2-carboxamide]	> 10	> 10	> 10	< 0.1	> 10	> 10	> 10
C=Cc1ccccc1COc1cc(-n2cnc3cc(OC)c(OC)cc32)sc1C(N)=O [Example 103, 5-(5,6-Dimethoxy-1H-benzimidazol-1-yl)-3-[(2-vinylbenzyl)oxy]thiophene-2-carboxamide]	1 to 10	1 to 10	> 10	< 0.1	1 to 10	> 10	1 to 10
COc1cc2ncn(-c3cc(OCc4ccc(C(N)=O)cc4)c(C(N)=O)s3)c2cc1OC [Example 104, 3-{[4-(Aminocarbonyl)benzyl]oxy}-5-(5,6-dimethoxy-1H-benzimidazol-1-yl)thiophene-2-carboxamide]	1 to 10	1 to 10	> 10	< 0.1	1 to 10	> 10	1 to 10
COc1cc2ncn(-c3cc(OCc4ccccc4C(C)=O)c(C(N)=O)s3)c2cc1OC [Example 105, 3-[(2-Acetylbenzyl)oxy]-5-(5,6-dimethoxy-1H-benzimidazol-1-yl)thiophene-2-carboxamide]	1 to 10	1 to 10	> 10	< 0.1	1 to 10	> 10	1 to 10
C#Cc1ccccc1COc1cc(-n2cnc3cc(OC)c(OC)cc32)sc1C(N)=O [Example 106, 5-(5,6-Dimethoxy-1H-benzimidazol-1-yl)-3-[(2-ethynylbenzyl)oxy]thiophene-2-carboxamide]	1 to 10	1 to 10	> 10	< 0.1	1 to 10	> 10	1 to 10
COc1cc2ncn(-c3cc(OCc4ccccc4C(O)CO)c(C(N)=O)s3)c2cc1OC (stereo not shown) [Example 109]	> 10	> 10	> 10	0.1 to 10	> 10	> 10	> 10
COc1cc2ncn(-c3cc(OCc4ccccc4C=O)c(C(N)=O)s3)c2cc1OC [Example 110, 5-(5,6-Dimethoxy-1H-benzimidazol-1-yl)-3-[(2-formylbenzyl)oxy]thiophene-2-carboxamide]	< 1	< 1	1 to 10	< 0.1	1 to 10	> 10	1 to 10
COc1cc2ncn(-c3cc(OCC4CCCCO4)c(C(N)=O)s3)c2cc1OC (stereo not shown) [Example 112, 5-(5,6-Dimethoxy-1H-benzimidazol-1-yl)-3-(tetrahydro-2H-pyran-2-ylmethoxy)thiophene-2-carboxamide]	> 10	1 to 10	> 10	0.1 to 10	1 to 10	> 10	> 10
